Test results as given in US20230348444A1, “NOVEL COMPOUNDS FOR USE IN THE TREATMENT OF DISEASES ASSOCIATED WITH ANGIOTENSIN II” (Vicore Pharma AB, priority 2020, published 2023).
pIC50: −log10 of the molar value. Read-outs that look alike come from different tables or passages of the source.

Legend:
[1] = biological target: T1, human recombinant AT2 receptor (Homo sapiens, UniProt P50052); assay: biochemical
T1 sequence (P50052 1-363): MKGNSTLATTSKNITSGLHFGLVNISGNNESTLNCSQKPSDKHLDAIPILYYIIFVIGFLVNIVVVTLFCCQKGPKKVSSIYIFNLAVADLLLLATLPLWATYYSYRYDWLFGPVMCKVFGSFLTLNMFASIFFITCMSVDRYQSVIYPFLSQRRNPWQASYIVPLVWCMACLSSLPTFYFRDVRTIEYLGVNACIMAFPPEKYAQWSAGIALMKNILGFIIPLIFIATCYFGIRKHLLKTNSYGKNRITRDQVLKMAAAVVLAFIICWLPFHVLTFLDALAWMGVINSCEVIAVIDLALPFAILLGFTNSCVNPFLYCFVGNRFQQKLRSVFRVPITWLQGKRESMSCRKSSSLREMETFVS
Experimental: (§3) Compounds were evaluated for binding to the human recombinant AT2 and AT1 receptor according to Eurofins protocol ITEM26 and ITEM24 using a radiometric scintillation assay.

[2] = biological target: T2, human recombinant AT1 receptor (Homo sapiens, UniProt P30556); assay: biochemical
T2 sequence (P30556 1-359): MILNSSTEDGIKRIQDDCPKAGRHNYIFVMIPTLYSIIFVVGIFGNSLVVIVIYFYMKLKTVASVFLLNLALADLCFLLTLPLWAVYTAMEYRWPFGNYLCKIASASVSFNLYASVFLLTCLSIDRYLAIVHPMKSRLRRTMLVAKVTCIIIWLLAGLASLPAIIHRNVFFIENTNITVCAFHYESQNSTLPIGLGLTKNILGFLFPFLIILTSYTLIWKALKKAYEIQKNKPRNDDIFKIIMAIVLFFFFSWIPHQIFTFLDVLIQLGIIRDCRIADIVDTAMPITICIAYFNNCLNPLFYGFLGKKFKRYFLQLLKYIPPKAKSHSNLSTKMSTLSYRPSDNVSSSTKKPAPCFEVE
Experimental: as §3

[3] = Metabolic stability in pooled human liver microsomes with or without NADPH; assay type: in vitro ADME; conditions: human, pooled human liver microsomes, pooled human liver microsomes 0.5 mg/mL in PBS, 1 uM test compound, 37° C.
Experimental: Pooled human liver microsomes in PBS at a concentration of 0.5 mg/mL was incubated with or without 1 mM NADPH for 70 min at 37° C. Test compound was added after 10 minutes to a final concentration of 1 uM. Samples were withdrawn at 0, 5, 15 and 60 minutes and added to test tubes containing acetonitrile, to stop the reaction, and with terfenadine, used as internal standard. After centrifugation at 10000×g for 5 minutes the supernatant was diluted 1:1 with 1% formic acid. Samples were separated on a reverse phase column and detected by triple quadrupole MSMS (Agilant model 6540). The concentration of the parent compound at the different time points was measured with an external standard curve using terfenadine as internal standard and the initial metabolic rate in the presence or absence of NADPH calculated.

CYP1A = biological target: T3, CYP1A (Homo sapiens, UniProt P05177); assay: CYP inhibition in human liver microsomes (Eurofins protocol ITEMG232); assay type: in vitro ADME; conditions: 10 μM, substrate phenacetin
T3 construct: using isoform-specific substrates incubated with human liver microsomes; tissue Eurofins ITEMG232; host or cells: human liver microsomes
T3 sequence (P05177 2-516 limits assumed): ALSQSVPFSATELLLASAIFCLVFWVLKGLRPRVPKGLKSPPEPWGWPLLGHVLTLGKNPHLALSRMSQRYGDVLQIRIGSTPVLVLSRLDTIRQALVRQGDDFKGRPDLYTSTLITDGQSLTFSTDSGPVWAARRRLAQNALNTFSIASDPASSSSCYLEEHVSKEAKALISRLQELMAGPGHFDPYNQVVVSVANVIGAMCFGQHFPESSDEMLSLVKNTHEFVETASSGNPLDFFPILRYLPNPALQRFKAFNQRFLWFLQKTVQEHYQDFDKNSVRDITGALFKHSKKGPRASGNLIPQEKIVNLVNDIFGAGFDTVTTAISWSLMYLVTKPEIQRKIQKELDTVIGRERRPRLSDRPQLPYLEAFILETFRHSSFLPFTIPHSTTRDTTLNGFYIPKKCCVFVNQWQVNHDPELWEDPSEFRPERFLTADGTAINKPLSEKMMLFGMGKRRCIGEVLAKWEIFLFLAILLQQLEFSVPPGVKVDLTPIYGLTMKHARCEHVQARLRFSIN
Experimental: (§1) The following substrates were used; CYP1A phenacetin, CYP2B6 bupropion, CYP2C8 paclitaxel and amodiaquine, CYP2C9 diclofenac, CYP2C19 omeprazole, CYP2D6 dextromethorphan, CYP3A midazolam and testosterone.
(§2) At the end of the incubation, the formation of metabolite was monitored by HPLC-MS/MS as the peak area response.

CYP2B6 = biological target: T4, CYP2B6 (Homo sapiens, UniProt P20813); assay: as above; assay type: in vitro ADME; conditions: 10 μM, substrate bupropion
T4 construct: using isoform-specific substrates incubated with human liver microsomes; tissue Eurofins ITEMG232; host or cells: human liver microsomes
T4 sequence (P20813 1-491): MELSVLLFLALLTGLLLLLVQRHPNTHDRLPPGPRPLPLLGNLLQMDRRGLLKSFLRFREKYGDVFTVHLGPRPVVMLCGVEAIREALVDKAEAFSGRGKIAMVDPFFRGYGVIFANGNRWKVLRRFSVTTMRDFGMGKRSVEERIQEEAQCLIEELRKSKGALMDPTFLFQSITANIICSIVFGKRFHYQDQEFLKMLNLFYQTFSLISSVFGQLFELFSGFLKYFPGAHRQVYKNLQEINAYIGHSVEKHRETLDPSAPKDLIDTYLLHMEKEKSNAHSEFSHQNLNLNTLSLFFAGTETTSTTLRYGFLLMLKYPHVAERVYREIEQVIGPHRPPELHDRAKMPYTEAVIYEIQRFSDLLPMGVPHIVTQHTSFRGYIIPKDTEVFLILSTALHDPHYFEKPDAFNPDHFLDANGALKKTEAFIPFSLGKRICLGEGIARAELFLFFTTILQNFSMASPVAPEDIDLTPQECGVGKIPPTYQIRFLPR
Experimental: as §1, §2

CYP2C8 = biological target: T5, CYP2C8 (Homo sapiens, UniProt P10632); assay: as above; assay type: in vitro ADME; conditions: 10 μM, substrates paclitaxel and amodiaquine
T5 construct: using isoform-specific substrates incubated with human liver microsomes; tissue Eurofins ITEMG232; host or cells: human liver microsomes
T5 sequence (P10632 1-490): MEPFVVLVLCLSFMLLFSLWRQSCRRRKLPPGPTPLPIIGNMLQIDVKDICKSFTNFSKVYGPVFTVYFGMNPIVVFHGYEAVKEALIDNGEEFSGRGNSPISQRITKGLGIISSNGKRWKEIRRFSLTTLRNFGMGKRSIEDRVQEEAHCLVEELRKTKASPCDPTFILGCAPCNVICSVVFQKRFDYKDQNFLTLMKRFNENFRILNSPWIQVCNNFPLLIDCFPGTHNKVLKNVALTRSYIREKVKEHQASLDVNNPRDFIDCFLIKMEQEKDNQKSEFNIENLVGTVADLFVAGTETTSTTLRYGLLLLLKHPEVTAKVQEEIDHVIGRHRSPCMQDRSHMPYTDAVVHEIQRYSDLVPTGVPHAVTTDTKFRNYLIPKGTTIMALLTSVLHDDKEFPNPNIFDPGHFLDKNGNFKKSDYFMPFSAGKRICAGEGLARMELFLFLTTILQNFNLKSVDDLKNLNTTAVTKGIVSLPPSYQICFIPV
Experimental: as §1, §2

CYP2D6 = biological target: T6, CYP2D6 (Homo sapiens, UniProt P10635); assay: as above; assay type: in vitro ADME; conditions: 10 μM, substrate dextromethorphan
T6 construct: tissue Eurofins ITEMG232; host or cells: human liver microsomes
T6 sequence (P10635 whole entry): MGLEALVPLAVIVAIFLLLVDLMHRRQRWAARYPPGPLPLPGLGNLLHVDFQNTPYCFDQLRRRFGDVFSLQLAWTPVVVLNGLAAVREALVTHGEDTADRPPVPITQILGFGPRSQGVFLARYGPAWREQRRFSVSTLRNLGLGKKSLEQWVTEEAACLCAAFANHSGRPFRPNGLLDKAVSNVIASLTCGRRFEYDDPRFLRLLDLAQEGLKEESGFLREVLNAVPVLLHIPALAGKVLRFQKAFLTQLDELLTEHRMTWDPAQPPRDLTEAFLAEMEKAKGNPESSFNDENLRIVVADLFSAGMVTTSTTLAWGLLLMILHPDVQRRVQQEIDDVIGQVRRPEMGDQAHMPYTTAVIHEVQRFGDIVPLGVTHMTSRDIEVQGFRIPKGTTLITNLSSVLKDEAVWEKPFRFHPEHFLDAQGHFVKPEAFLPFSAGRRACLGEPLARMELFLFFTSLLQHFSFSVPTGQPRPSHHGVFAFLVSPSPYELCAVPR
Experimental: as §1, §2

CYP3A4&5 = assay: CYP inhibition in human liver microsomes (Eurofins protocol ITEMG232), testosterone substrate; assay type: in vitro ADME; conditions: probe testosterone, read-out: CYP3A4&5 testosterone Inh %
Experimental: as §1, §2

CYP2C9 = CYP2C9 (Homo sapiens, UniProt P11712); assay: CYP inhibition of C21 found during development; assay type: in vitro ADME; conditions: statement in words
CYP2C9, sequence (P11712 whole entry): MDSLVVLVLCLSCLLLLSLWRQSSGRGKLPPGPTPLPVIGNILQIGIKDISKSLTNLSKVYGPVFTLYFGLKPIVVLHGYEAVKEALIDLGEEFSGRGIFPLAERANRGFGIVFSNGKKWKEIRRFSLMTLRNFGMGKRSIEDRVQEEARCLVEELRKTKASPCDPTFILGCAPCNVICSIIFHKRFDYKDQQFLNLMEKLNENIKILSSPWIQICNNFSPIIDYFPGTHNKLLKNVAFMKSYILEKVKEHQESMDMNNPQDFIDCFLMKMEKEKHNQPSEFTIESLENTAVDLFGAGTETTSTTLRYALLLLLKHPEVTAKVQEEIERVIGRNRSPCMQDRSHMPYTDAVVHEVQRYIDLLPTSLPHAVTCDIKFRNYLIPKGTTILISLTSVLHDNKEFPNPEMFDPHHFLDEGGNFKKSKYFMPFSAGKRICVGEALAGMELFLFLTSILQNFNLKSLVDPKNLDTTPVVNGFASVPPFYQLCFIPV

CYP3A4 [4] = biological target: T7, CYP3A4 (Homo sapiens, UniProt P08684); assay: CYP inhibition of C21 found during development; assay type: in vitro ADME; conditions: statement in words
T7 sequence (P08684 whole entry): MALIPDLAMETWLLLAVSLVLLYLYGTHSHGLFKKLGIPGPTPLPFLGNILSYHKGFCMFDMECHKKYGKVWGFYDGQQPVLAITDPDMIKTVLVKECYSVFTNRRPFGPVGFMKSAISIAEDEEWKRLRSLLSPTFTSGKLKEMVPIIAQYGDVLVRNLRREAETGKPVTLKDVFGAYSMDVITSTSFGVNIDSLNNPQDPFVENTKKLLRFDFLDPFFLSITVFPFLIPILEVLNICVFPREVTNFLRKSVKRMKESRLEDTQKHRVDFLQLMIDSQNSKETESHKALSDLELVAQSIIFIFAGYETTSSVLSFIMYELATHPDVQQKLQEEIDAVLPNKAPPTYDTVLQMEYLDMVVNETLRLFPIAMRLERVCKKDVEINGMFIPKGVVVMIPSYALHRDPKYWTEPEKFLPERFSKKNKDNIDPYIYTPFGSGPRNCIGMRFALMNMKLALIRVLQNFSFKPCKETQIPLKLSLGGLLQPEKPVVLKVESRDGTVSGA

[5] = Metabolic hydrolysis of C21 found during development; assay type: in vitro ADME; conditions: statement in words
CYP3A4 [6] = biological target: T7, CYP3A4; assay: CYP inhibition in human liver microsomes (Eurofins protocol ITEMG232), midazolam substrate; assay type: in vitro ADME; set-up: using isoform-specific substrates incubated with human liver microsomes; tissue Eurofins ITEMG232; host or cells: human liver microsomes; conditions: 10 μM
Experimental: as §1, §2

pIC50 [1]	pIC50 [2]	half-life at 1 uM ([3]; with 1 mM NADPH, read-out: T1/2, +NaDPH)	half-life at 1 uM ([3]; without NADPH, read-out: T1/2, no NaDPH)	CYP1A Inh % (CYP1A)	CYP2B6 Inh % (CYP2B6)	CYP2C8 Inh % (CYP2C8)	CYP2D6 Inh % (CYP2D6)	inhibition at 10 µM (CYP3A4&5)	inhibition of CYP 2C9 (CYP2C9)	inhibition of CYP 3A4 (CYP3A4 [4])	hydrolysis to an inactive sulfonamide metabolite [5]	CYP3A4 midazolam Inh % (CYP3A4 [6])	SMILES
8.47	< 6.00	–	–	–	–	–	–	–	–	–	–	–	Cc1nccn1Cc1ccc(-c2cc(CC(C)C)sc2S(=O)(=O)NC(=O)OCCOc2ccccc2)cc1F [Example 9, 2-Phenoxyethyl (3-(3-fluoro-4-((2-methylimidazol-1-yl)methyl]phenyl)-5-isobutyl-2-thienyl)sulfonylcarbamate]
–	–	35 min	31 min	91%	49%	80%	81%	94%	potent inhibitor	potent inhibitor	rapidly hydrolysed	95%	CCCCOC(=O)NS(=O)(=O)c1sc(CC(C)C)cc1-c1ccc(Cn2ccnc2)cc1 [Example C21, N-butyloxycarbonyl-3-(4-imidazol-1-ylmethylphenyl)-5-isobutylthiophene-2-sulfon-amide, reference compound]
